Assay results: US20080063642A1, “Methods of using (+)-1,4-dihydro-7-[(3S,4S)-3-methoxy-4-(methylamino)-1-pyrrolidinyl]-4-oxo-1-(2-thiazolyl)-1,8-naphthyridine-3-carboxylic acid for treatment of certain hematologic disorders” (priority 2006, published 2008)
≈ marks a conversion by molar mass, not a printed value. Marks after values point to notes of the source that are not given here. Each block holds one molecule with its values, some of them ahead of it.

Legend:
[1] = test system: CCRF-CEM (lymphoblastic leukemia); experiment: MTT cell viability assay, CCRF-CEM; format: cell-based; conditions: Homo sapiens, MTT after 72 hours
Experimental: (§1) The following cell lines were used in this assay: HL-60 (promyelocytic leukemia); Jurkat (T cell leukemia); CCRF-CEM (lymphoblastic leukemia); CEM/C2 (camptothecan resistant derivative of CCRF-CEM).
(§2) Cells were seeded in 96 wells plates at 3000 cells per well and incubated for 16 hours. Compound dilutions were performed in DMSO from 10 mM with 3 fold dilutions. Titrations were diluted 1:100 in media to achieve final compound concentrations. The 96 well plates were aspirated and compound dilutions in media were added ([…]). MTT analysis was carried out after 72 hours of incubation at 37° C. Briefly, […] of MTT solution was added to each well. Cells were incubated at 37° C. for 1-2 hours. Cells were lysed with the addition of […] cell lysis buffer and MTT was solubilized overnight at 37° C. Plates were read on a spectromax machine with an absorbance measurement at […]. IC50's were calculated (data provided in Table 1) using regression analysis within GraphPad Prism.

[2] = test system: CEM/C2 (camptothecan resistant derivative of CCRF-CEM); experiment: MTT cell viability assay, CEM/C2; format: cell-based; conditions: Homo sapiens, MTT after 72 hours
Experimental: as §1, §2

[3] = test system: HL-60 (promyelocytic leukemia); experiment: MTT cell viability assay, HL-60; format: cell-based; conditions: Homo sapiens, MTT after 72 hours
Experimental: as §1, §2

[4] = test system: LM3-Jck human malignant lymphoma tumor; experiment: LM3-Jck xenograft model; format: in vivo; conditions: LM3-JcK
Experimental: LM3-Jck human malignant lymphoma tumor lobes (2-3 mm square) were transplanted subcutaneously into nude mice. Tumors were allowed to grow to approximately 7-14 mm in diameter. […] Acceptable toxicity was defined as a mean group weight loss of 30% or less and not more than one toxic death among 6 treated animals. Anti-tumor activities of the drugs were assessed 21 days after the start of administration.

[5] = test system: CCRF-CEM acute lymphoblastic leukemia tumor; experiment: CCRF-CEM xenograft model; format: in vivo
Experimental: CCRF-CEM acute lymphoblastic leukemia tumor lobes of 2-3 mm square were transplanted subcutaneously into nude mice. Tumors were allowed to grow to approximately 8-20 mm in diameter. […] Acceptable toxicity was defined as a mean group weight loss of 30% or less and not more than one toxic death among 6 treated animals. Anti-tumor activities of the drugs were assessed 20 or 21 days after the start of administration. FIGS. 1-2 and Table 2 provides data for tumor inhibition rate (IR) and survival ratio in the CCRF-CEM and LM3-Jck xenograft models.

bone marrow = experiment: Monotherapy and combination with Ara-C (Example 6): bone marrow total cellularity; format: in vivo, Female CD-1 mice; conditions: for Total Cellularity (Avg) Exp #1: two days after completion of treatment
Experimental: Blood was analyzed at Quality Control Labs (Mountain View, Calif.) for complete blood count and differential count. Bone marrow smears from femurs on Day 6 and Day 12 were prepared and geimsa stained for differential counts. Femurs were also placed in Streck fixative, processed, sectioned and H&E stained. Femur and bone marrow smears were analyzed at BioPathology Sciences (South San Francisco, Calif.) for total cellularity and differential count. […] The compounds were administered on Day 0 and Day 4.

in vivo = conditions: CD-1, mouse
[6] = test system: peripheral neutrophils, white blood cells, platelets; experiment: Combination dosing SNS-595 and Ara-C (Example 5): peripheral cytology; format: in vivo, nu/nu mice
Experimental: At various time points described in Table 5, mice were euthanized by CO2 asphyxiation in accordance to Institutional Animal Care and Use Committee (IACUC) guidelines. Blood was collected through cardiac tap and transferred to EDTA tubes. The analysis of murine blood CBC and differential counts for samples in these tubes was conducted (at Quality Clinical Labs, Moutainview). Statistical significance was determined by one-tailed student t-test, using Welch's correction for unequal variances.

[7] = Combination dosing SNS-595 and Ara-C (Example 5): body weight changes
Experimental: The effects of dosing were studied on changes in body weight, peripheral cytology, and femoral bone marrow cellularity over time as described below.
Before beginning the study, all animals were allowed to acclimatize for 3 days from shipping related stress and the health of the mice was assessed daily by observation. Purified water (reverse osmosis) and irradiated food (PicoLab Rodent Diet 20, #5053; Dean's Animal Feeds, San Carlos, Calif.) were provided ad libitum, and the animals were kept on a 12 hour light and dark cycle.

femoral bone marrow = experiment: Combination dosing SNS-595 and Ara-C (Example 5): femoral bone marrow cellularity; format: in vivo, nu/nu mice
Text: Femurs were harvested for histological evaluation. The femur was placed in Streck fixative, paraffin embedded, sectioned, transferred to slides, and H&E stained (at BioPathology Sciences). Immunohistochemical slides were processed and analyzed for percent cellularity of intact bone marrow.

[8] = CCRF-CEM, 100 mg/kg q4d × 3, IV
[9] = Ara-C 20, 40 and 60 mg/kg tid q4d ×2
[10] = Group 5: Ara-C 20 mg/kg SC tid q4d × 2
[11] = Group 6: Ara-C 40 mg/kg SC tid q4d × 2
[12] = Group 7: Ara-C 60 mg/kg SC tid q4d × 2

Compound: CCc1c2c(nc3ccc(OC(=O)N4CCC(N5CCCCC5)CC4)cc13)-c1cc3c(c(=O)n1C2)COC(=O)[C@]3(O)CC [Irinotecan]
- IC50 [1]: 0.479 µg/mL (≈ 0.816 µM)
- IC50 [2]: 44.4 µg/mL (≈ 75.7 µM)
- IC50 [3]: 0.905 µg/mL (≈ 1.54 µM)
- IR (%) tumor inhibition rate ([4]; 100 mg/kg q4d × 3, IV): 97.7* %
- Survival Ratio ([4]; 100 mg/kg q4d × 3, IV): 6/6
- IR (%) tumor inhibition rate [5, 8]: 99.7* %
- Survival Ratio [5, 8]: 5/6

- IC50 [1]: 0.003 µg/mL (≈ 0.00552 µM)
- IC50 [2]: 0.017 µg/mL (≈ 0.0313 µM)
- IC50 [3]: 0.024 µg/mL (≈ 0.0442 µM)
Compound: COc1cccc2c1C(=O)c1c(O)c3c(c(O)c1C2=O)C[C@@](O)(C(=O)CO)C[C@@H]3O[C@H]1C[C@H](N)[C@H](O)[C@H](C)O1 [Doxorubicin]
- IR (%) tumor inhibition rate ([4]; 12 mg/kg q7d × 3, IV): 57.2* %
- IR (%) tumor inhibition rate ([5]; CCRF-CEM, 12 mg/kg q7d × 3, IV): 50.3* %

Compound: Nc1ccn([C@@H]2O[C@H](CO)[C@@H](O)[C@@H]2O)c(=O)n1 [Ara-C, cytarabine]
- Total Cellularity (Avg) Exp #2 (bone marrow; Ara-C 20 mg/kg tid q4d ×2): 92%
- Total Cellularity (Avg) Exp #1 (bone marrow; Ara-C 20 mg/kg tid q4d × 2): 88%
- Total Cellularity (Avg) Exp #2 (bone marrow; Ara-C 60 mg/kg tid q4d × 2): 54%
- Total Cellularity (Avg) Exp #1 (bone marrow; Ara-C 60 mg/kg tid q4d × 2): 58%
- MTD (in vivo): 60 mg/kg
- day of nadir of number of neutrophils ([6]; Ara-C 20 mg/kg tid q4d ×2): 6 days
- day of nadir of platelets ([6]; Ara-C 40 mg/kg tid q4d ×2): 8 days
- number of white blood cells versus vehicle group ([6]; Ara-C 60 mg/kg, day 8): significantly lower than the vehicle group
- circulating white blood cells, dose response [6, 9]: dose-dependent reduction
- day of nadir of platelets ([6]; Ara-C 20 and 60 mg/kg tid q4d ×2): 6 days
- day of nadir of number of neutrophils ([6]; Ara-C 40 and 60 mg/kg tid q4d ×2): 8 days
- day by which neutrophils returned to normal levels ([6]; Ara-C all dose levels): ≤ 12 days
- day by which platelets returned to normal levels ([6]; Ara-C all dose levels): ≤ 12 days
- recovery of white blood cells ([6]; Ara-C all dose levels): failed to return to normal levels by day 18
- number of platelets versus vehicle group ([6]; Ara-C all dose levels, day 6 and day 8): significantly lower than the vehicle group
- number of neutrophils versus vehicle group ([6]; Ara-C all dose levels, day 8): significantly lower than the vehicle group
- day of maximum body weight loss [7, 9]: 7 days
- maximum body weight loss [7, 9]: ≤ 2%
- % of Body Wt Nadir [7, 10]: −0.3%
- Day of Body Wt Nadir [7, 10]: 7 days
- % of Body Wt Nadir [7, 11]: 0%
- Day of Body Wt Nadir [7, 11]: 0 days
- % of Body Wt Nadir [7, 12]: −1.7%
- Day of Body Wt Nadir [7, 12]: 7 days
- reduction in cellularity (femoral bone marrow; Ara-C 20 mg/kg SC three times a day, single agent): 12%
- bone marrow cellularity, dose response (femoral bone marrow; Ara-C single agent 20, 40, 60 mg/kg): No dose dependent reduction
- total cellularity, femur cross section of representative animal (femoral bone marrow; Day 6, Ara-C 20 mg/kg tid q4d ×2 SC, Animal #83): 90%
- total cellularity, femur cross section of representative animal (femoral bone marrow; Day 6, Ara-C 40 mg/kg tid q4d ×2 SC, Animal #103): 90%
- total cellularity, femur cross section of representative animal (femoral bone marrow; Day 6, Ara-C 60 mg/kg tid q4d ×2 SC, Animal #122): 50%
- total cellularity, femur cross section of representative animal (femoral bone marrow; Day 12, Ara-C 60 mg/kg tid q4d ×2 SC, Animal #134): 50%
- Average Total Cellularity Day 6 (femoral bone marrow; [10]): 88%
- Average Total Cellularity Day 6 (femoral bone marrow; [11]): 90%
- Average Total Cellularity Day 6 (femoral bone marrow; [12]): 58%
- Average Total Cellularity Day 12 (femoral bone marrow; [12]): 99%

- IC50 [3]: 0.136 µg/mL (≈ 0.231 µM)
Compound: COc1cc([C@@H]2c3cc4c(cc3[C@@H](O[C@@H]3O[C@@H]5CO[C@@H](C)O[C@H]5[C@H](O)[C@H]3O)[C@H]3COC(=O)[C@H]23)OCO4)cc(OC)c1O [Etoposide]
- IR (%) tumor inhibition rate ([4]; 12 mg/kg qd × 5, IV): 3.0%
- IR (%) tumor inhibition rate ([5]; CCRF-CEM, 12 mg/kg qd × 5, IV): 28.3%
- Survival Ratio ([5]; nude, mouse, in vivo, iv, 12 mg/kg): 6/6
